Experiment [1] concerns the target T1, Human Dopamine D4 receptor (Homo sapiens, UniProt P21917).
T1 construct: expressed in transfected cells; host or cells: Sf9 cells
T1 sequence (P21917 1-419): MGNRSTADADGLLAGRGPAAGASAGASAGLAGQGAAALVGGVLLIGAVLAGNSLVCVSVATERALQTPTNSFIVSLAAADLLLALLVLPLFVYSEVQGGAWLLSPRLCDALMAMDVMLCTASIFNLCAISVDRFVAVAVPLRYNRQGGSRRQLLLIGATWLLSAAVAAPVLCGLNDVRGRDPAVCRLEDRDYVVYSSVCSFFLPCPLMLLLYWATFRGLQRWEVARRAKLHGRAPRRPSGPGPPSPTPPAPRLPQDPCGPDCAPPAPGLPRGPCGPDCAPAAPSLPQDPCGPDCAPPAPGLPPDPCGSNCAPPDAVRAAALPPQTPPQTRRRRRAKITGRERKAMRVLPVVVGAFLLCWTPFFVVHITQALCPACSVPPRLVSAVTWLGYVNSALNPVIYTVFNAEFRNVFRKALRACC
Briefly: Radioligand binding experiment for dopamine D4 receptor (hD4), [125I]Spiperone. Particulars: membranes of D4 receptor-transfected Sf9 cells, read-out: pIC50 D4 (converted). Here is the method: The interaction of the compounds of Formula (I) with dopamine-receptors, h5HT-transporter and h5HT1A receptor was assessed in in vitro radioligand binding experiments. In general, a low concentration of a radioligand with a high binding affinity for a particular receptor or transporter is incubated with a sample of a tissue preparation enriched in a particular receptor or transporter or with a preparation of cells expressing cloned human receptors in a buffered medium. During the incubation, the radioligand binds to the receptor or transporter. When equilibrium of binding is reached, the receptor bound radioactivity is separated from the non-bound radioactivity, and the receptor- or transporter-bound activity is counted The interaction of the test compounds with the receptor is assessed in competition binding experiments. Various concentrations of the test compound are added to the incubation mixture containing the receptor- or transporter preparation and the radioligand. […]
Human Dopamine D4 receptor-transfected Sf9 cells were collected by scraping into ice-cold Tris-HCl buffer (50 mM, pH 7.4). […] Filters were allowed to dry before adding scintillation fluid and counting in a Topcount scintillation counter. % Specific bound and competition binding curves were calculated using S-Plus software (Insightful).

In experiment [2] the target is T2, Human Dopamine D2L receptor (Homo sapiens, UniProt P14416).
T2 construct: expressed in transfected cells; host or cells: CHO cells
Nature of the experiment: Radioligand binding experiment for dopamine D2 receptor (hD2), [3H]Spiperone. Conditions: membranes of D2L receptor-transfected CHO cells, read-out: pIC50 D2 (converted). Here is the method:
(§1) The interaction of the compounds of Formula (I) with dopamine-receptors, h5HT-transporter and h5HT1A receptor was assessed in in vitro radioligand binding experiments. In general, a low concentration of a radioligand with a high binding affinity for a particular receptor or transporter is incubated with a sample of a tissue preparation enriched in a particular receptor or transporter or with a preparation of cells expressing cloned human receptors in a buffered medium. During the incubation, the radioligand binds to the receptor or transporter. When equilibrium of binding is reached, the receptor bound radioactivity is separated from the non-bound radioactivity, and the receptor- or transporter-bound activity is counted The interaction of the test compounds with the receptor is assessed in competition binding experiments. Various concentrations of the test compound are added to the incubation mixture containing the receptor- or transporter preparation and the radioligand. The test compound in proportion to its binding affinity and its concentration inhibits binding of the radioligand.
Human Dopamine D2L receptor-transfected CHO cells were collected by scraping into ice-cold Tris-HCl buffer ([…], pH 7.4). The suspension was centrifuged (23 500×g, 10 min, 4° C.) and pellets stored at −70° C. until require. They were then thawed and briefly homogenised using an Ultra-Turrax T25 homogeniser prior to dilution to an appropriate protein concentration optimised for specific and non-specific binding. [^3H]Spiperone (NEN, specific activity˜70 Ci/mmol) was diluted in Tris-HCl assay buffer containing NaCl, CaCl2, MgCl2, KCI (50, 120, 2, 1, and 5 mM respectively, adjusted to pH 7.7 with HCl) at a concentration of 2 nmol/L. Prepared radioligand (50 μl) was then incubated (30 min, 37° C.) with membrane preparations pre-diluted to an appropriate protein concentration (400 μl), and with 50 μl of either the 10% DMSO control, Butaclamol (10^−6 mol/L final concentration), or compound of interest. Membrane-bound activity was detected by filtration through a Packard Filtermate harvester onto Unifilterplates, washing with ice-old Tris-HCl buffer (50 mM; pH8.0; 3×4 ml). Filters were allowed to dry before adding scintillation fluid and counting in a Topcount scintillation counter. % Specific bound and competition binding curves were calculated using S-Plus software (Insightful).

A further experiment concerns the target T3, Human 5HT1A receptor (Homo sapiens, UniProt P08908).
T3 construct: expressed in transfected cells; host or cells: L929 cells (stably transfected)
T3 sequence (P08908 1-422): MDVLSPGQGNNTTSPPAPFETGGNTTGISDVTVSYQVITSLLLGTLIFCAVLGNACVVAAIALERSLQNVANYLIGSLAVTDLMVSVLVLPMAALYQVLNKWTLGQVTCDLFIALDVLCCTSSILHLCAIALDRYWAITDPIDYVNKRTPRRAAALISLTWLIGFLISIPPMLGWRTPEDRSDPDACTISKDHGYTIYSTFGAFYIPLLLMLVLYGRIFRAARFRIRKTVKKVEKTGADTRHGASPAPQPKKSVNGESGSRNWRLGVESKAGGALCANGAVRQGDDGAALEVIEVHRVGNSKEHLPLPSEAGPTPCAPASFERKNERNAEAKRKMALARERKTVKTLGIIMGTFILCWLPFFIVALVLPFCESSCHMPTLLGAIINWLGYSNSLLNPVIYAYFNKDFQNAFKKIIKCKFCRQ
Briefly: Binding experiment for 5-HT1A receptor, [3H]8OHDPAT. Particulars: membranes of 5HT1A receptor-transfected L929 cells, read-out: pIC50 5HT1A (converted). Here is the method:
as §1
Human 5HT1A receptor-transfected L929 cells were collected by scraping into ice-cold Tris-HCl buffer (50 mM, pH 7.4). The suspension was centrifuged (23 500×g, 10 min, 4° C.) and pellets stored at −70° C. until required. They were then thawed and briefly homogenised using an Ultra-Turrax T25 homogeniser prior to dilution to an appropriate protein concentration optimised for specific and non-specific binding. [^3H]8OHDPAT (NEN, specific activity 127 Ci/mmol) was diluted in Tris-HCl assay buffer containing CaCl2 (50 mM and 4 mM, respectively; pH 7.7) at a concentration of 5 nmol/L. Prepared radioligand (50 μl) was then incubated (30 min, 37° C.) with membrane preparations from L929 cells stably-transfected with the h5HT1A gene construct (400 μl) and with 50 μl of either the 10% DMSO control, spiroxatrine (10^−6 mol/L final concentration), or compound of interest. Membrane-bound activity was detected by filtration through a Packard Filtermate harvester onto Unifaltemplates, washing with ice-cold Tris-HCI buffer (3×4 ml), followed by drying. Scintillation fluid was added and membranes were counted in a Topcount scintillation counter. % Specific bound and competition binding curves were calculated using S-Plus software (Insightful).

Another experiment deals with T4, human 5HT transporter (Homo sapiens, UniProt P31645).
T4 construct: host or cells: HEK cells
Nature of the experiment: Binding experiment for 5-HT transporter, [3H]Paroxetine. Conditions: 5HT transporter-transfected HEK cells, [3H]Paroxetine binding; read-out: pIC50 5HT reuptake inhibition (converted). How it is done: as §1
Frozen human 5HT transporter-transfected HEK cells (Perkin Elmer, Brussels) were thawed and briefly homogenised using an Ultra-Turrax T25 homogeniser prior to dilution to an appropriate protein concentration optimised for specific and non-specific binding. [^3H]Paroxetine (NEN, specific activity 20 Ci/mmol) was diluted in Tris-HCl assay buffer containing NaCl and KCl (50 mM 120 mM and 5 mM, respectively; pH 7.4) at a concentration of 5 nmol/L. Prepared radioligand (25 μl) was then incubated (60 min, 25° C.) with membrane preparations (200 μl) and with 25 μl of either 10% DMSO control, Imipramine (10^−6 mol/L final concentration), or compound of interest Membrane-bound activity was detected by filtration through a Packard Filtermate harvester onto Unifilterplates pre-soaked in 0.1% PEI, washing with ice-cold assay buffer (3×4 ml). Filters were dried prior to addition of scintillation fluid and then counting in a Topcount scintillation counter. % Specific bound and competition binding curves were calculated using S-Plus software (Insightful).

The structures appear in SMILES notation.

T4 sequence (P31645 whole entry): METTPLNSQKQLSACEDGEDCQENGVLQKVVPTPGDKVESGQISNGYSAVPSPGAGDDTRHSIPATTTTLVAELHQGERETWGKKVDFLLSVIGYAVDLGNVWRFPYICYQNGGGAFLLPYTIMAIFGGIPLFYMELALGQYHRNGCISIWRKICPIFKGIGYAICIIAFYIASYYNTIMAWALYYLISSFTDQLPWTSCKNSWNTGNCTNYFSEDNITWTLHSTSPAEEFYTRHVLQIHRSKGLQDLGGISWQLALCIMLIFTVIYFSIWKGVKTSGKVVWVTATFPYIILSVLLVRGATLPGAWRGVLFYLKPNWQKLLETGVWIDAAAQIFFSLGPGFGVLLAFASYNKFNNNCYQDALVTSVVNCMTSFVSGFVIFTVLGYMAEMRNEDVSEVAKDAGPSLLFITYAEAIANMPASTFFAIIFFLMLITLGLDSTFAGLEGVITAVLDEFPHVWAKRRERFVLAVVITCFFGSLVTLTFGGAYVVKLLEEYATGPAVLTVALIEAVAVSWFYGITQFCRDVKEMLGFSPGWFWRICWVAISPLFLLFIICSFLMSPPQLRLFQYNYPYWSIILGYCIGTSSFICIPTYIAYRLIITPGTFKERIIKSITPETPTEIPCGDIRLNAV
T2 sequence (P14416 whole entry): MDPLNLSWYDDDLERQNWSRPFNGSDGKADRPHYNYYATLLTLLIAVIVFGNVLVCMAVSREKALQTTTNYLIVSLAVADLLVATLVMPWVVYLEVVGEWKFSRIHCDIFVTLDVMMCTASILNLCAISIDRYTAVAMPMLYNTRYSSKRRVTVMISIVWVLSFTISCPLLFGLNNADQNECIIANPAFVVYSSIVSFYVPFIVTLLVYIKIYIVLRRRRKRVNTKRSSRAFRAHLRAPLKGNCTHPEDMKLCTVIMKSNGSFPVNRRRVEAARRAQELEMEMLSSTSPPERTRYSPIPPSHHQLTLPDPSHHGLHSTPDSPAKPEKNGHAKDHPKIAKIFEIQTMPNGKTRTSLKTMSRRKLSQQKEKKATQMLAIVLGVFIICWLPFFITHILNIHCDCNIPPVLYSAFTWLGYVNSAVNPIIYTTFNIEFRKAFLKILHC

With `Fc1ccc2[nH]cc(C3=CCN(CC4COc5ccncc5O4)CC3)c2c1` (stereo not shown) [Compound 4], the IC50 in experiment [1] is 0.0501 µM; in experiment [2], 0.158 µM; at Human 5HT1A receptor, 0.126 µM; on human 5HT transporter it was 0.0501 µM.
